{
  "source": "paper PMC4077706",
  "about": "“Lifting the Mask: Identification of New Small Molecule Inhibitors of Uropathogenic Escherichia coli Group 2 Capsule Biogenesis” (PLoS ONE, 2014)",
  "key": {"[1]": {"target": "T1, Neuropeptide Y Y2 (Homo sapiens, UniProt P49146)", "T1 construct": "Human KAN-TS cells; host or cells: KAN-TS cells", "T1 sequence (P49146 whole entry)": "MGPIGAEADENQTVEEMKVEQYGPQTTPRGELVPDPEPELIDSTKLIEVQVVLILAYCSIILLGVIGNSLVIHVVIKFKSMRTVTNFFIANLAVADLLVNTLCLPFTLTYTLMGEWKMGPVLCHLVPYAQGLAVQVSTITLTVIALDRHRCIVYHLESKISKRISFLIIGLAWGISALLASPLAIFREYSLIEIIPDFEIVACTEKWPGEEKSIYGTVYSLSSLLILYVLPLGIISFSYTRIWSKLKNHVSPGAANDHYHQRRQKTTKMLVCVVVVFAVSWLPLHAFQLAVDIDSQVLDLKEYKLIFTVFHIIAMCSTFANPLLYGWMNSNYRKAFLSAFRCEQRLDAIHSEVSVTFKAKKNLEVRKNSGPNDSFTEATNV", "format": "binding", "settings": "10 µM"}, "[2]": {"system": "Glutamate, NMDA, Phencyclidine", "assay": "Radioligand binding 233000", "design": "species or system rat", "settings": "10 µM"}, "[3]": {"system": "Purinergic P2X", "assay": "Radioligand binding 268700", "design": "species or system rabbit", "settings": "10 µM"}, "[4]": {"target": "T2, Muscarinic M1 (Homo sapiens, UniProt P11229)", "T2 construct": "host or cells: CHO-K1 cells", "assay": "Radioligand binding 252610", "settings": "10 µM"}, "[5]": {"target": "Potassium Channel hERG (Homo sapiens, UniProt Q12809)", "settings": "10 µM"}, "[6]": {"target": "T3, Estrogen ERα (Homo sapiens, UniProt P03372)", "T3 construct": "host or cells: insect Sf9 cells", "format": "binding", "settings": "10 µM"}, "[7]": {"system": "Glutamate, Kainate", "assay": "Radioligand binding 232700", "design": "species or system rat", "settings": "10 µM"}, "[8]": {"target": "T4, Adenosine A2A (Homo sapiens, UniProt P29274)", "T4 construct": "host or cells: HEK-293 cells", "T4 sequence (P29274 whole entry)": "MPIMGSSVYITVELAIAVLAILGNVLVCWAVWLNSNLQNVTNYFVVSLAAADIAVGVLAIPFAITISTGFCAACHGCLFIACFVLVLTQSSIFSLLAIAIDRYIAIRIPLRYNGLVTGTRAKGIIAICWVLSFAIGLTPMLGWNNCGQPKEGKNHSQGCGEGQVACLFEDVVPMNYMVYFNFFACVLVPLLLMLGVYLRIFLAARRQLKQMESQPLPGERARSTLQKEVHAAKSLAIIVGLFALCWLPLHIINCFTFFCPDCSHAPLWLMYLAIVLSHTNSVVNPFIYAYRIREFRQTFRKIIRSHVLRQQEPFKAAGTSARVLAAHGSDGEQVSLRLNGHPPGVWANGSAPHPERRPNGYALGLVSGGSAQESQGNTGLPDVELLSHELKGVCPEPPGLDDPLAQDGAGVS", "assay": "Radioligand binding 200610", "settings": "10 µM"}, "[9]": {"target": "T5, Adrenergic α1B (Rattus norvegicus, UniProt P15823)", "T5 construct": "Wistar Rat liver; tissue Eurofins Panlabs (assay Cat #) 203200; host or cells: Wistar rat liver", "T5 sequence (P15823 whole entry)": "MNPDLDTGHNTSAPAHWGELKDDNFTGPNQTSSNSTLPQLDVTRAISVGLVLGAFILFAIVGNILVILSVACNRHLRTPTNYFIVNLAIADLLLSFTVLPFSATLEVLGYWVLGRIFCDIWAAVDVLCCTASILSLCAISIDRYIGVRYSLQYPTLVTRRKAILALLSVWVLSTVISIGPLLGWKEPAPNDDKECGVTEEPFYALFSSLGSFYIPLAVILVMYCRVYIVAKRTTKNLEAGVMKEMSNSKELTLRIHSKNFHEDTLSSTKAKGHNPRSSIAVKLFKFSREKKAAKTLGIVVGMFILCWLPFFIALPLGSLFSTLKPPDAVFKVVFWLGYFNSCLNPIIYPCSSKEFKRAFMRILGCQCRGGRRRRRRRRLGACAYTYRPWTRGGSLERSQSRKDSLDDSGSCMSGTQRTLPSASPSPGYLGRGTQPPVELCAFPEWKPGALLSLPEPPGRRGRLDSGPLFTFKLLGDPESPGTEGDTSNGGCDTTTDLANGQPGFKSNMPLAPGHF", "format": "binding", "settings": "10 µM"}, "[10]": {"system": "Phorbol Ester", "assay": "Radioligand binding 264500", "design": "species or system mouse", "settings": "10 µM"}, "[11]": {"target": "T6, Endothelin ETA (Homo sapiens, UniProt P25101)", "T6 construct": "host or cells: CHO-K1 cells", "format": "binding", "settings": "10 µM"}, "[12]": {"target": "Serotonin (5-Hydroxytryptamine) 5-HT3 (Homo sapiens, UniProt P46098)", "format": "binding", "design": "host or cells: HEK-293", "settings": "10 µM"}, "[13]": {"target": "T7, Muscarinic M2 (Homo sapiens, UniProt P08172)", "T7 construct": "host or cells: CHO-K1 cells", "assay": "Radioligand binding 252710", "settings": "10 µM"}, "[14]": {"target": "Dopamine D2S (Homo sapiens, UniProt P14416)", "sequence (P14416 other isoform, or with tags, fused parts or gaps)": "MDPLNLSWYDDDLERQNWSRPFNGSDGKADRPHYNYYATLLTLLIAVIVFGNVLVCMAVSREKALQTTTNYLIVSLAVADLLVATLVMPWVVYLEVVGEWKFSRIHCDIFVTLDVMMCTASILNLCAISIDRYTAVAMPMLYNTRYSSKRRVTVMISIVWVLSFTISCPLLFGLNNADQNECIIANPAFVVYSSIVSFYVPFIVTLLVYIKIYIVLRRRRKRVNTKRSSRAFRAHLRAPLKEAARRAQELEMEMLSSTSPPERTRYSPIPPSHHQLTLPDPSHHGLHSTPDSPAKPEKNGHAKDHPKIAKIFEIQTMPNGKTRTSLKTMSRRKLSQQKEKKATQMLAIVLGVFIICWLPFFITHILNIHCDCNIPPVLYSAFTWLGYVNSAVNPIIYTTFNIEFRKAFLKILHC", "format": "binding", "design": "host or cells: CHO cells", "settings": "10 µM"}, "[15]": {"target": "T8, Adrenergic α1D (Homo sapiens, UniProt P25100)", "T8 construct": "host or cells: HEK-293 cells", "T8 sequence (P25100 whole entry)": "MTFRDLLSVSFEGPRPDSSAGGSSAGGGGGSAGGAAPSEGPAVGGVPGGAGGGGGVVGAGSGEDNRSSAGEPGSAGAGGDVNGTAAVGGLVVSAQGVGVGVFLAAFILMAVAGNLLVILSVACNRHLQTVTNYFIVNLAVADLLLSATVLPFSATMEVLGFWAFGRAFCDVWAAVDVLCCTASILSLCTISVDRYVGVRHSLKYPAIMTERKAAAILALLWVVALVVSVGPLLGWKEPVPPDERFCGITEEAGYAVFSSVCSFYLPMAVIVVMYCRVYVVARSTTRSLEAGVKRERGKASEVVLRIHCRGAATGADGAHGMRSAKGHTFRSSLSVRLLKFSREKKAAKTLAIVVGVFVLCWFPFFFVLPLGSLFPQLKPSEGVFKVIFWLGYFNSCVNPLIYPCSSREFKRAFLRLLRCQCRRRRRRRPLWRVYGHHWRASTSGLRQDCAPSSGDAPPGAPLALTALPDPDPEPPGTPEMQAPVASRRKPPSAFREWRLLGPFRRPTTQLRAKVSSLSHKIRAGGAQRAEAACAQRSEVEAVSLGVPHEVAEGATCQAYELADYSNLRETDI", "format": "binding", "settings": "10 µM"}, "[16]": {"target": "T9, GABAB1A (Homo sapiens, UniProt Q9UBS5)", "T9 construct": "host or cells: CHO cells", "assay": "Radioligand binding 228610", "settings": "10 µM"}, "[17]": {"target": "T10, Histamine H1 (Homo sapiens, UniProt P35367)", "T10 construct": "host or cells: CHO-K1 cells", "T10 sequence (P35367 whole entry)": "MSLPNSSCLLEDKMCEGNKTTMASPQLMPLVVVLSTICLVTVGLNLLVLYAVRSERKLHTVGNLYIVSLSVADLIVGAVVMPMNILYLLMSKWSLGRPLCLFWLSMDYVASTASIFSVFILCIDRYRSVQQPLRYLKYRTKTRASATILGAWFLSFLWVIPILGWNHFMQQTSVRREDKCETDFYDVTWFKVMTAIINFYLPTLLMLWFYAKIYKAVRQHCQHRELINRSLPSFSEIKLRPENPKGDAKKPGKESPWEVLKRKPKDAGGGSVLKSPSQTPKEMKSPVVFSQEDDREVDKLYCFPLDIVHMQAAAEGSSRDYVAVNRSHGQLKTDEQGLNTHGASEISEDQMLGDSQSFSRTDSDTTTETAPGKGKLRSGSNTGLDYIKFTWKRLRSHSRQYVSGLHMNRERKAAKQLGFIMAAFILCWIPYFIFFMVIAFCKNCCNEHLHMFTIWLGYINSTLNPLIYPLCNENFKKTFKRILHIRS", "format": "binding", "settings": "10 µM"}, "[18]": {"target": "Glutamate, NMDA, Agonism (Rattus norvegicus, UniProt Q00959)", "sequence (Q00959 23-1464, other chains not shown)": "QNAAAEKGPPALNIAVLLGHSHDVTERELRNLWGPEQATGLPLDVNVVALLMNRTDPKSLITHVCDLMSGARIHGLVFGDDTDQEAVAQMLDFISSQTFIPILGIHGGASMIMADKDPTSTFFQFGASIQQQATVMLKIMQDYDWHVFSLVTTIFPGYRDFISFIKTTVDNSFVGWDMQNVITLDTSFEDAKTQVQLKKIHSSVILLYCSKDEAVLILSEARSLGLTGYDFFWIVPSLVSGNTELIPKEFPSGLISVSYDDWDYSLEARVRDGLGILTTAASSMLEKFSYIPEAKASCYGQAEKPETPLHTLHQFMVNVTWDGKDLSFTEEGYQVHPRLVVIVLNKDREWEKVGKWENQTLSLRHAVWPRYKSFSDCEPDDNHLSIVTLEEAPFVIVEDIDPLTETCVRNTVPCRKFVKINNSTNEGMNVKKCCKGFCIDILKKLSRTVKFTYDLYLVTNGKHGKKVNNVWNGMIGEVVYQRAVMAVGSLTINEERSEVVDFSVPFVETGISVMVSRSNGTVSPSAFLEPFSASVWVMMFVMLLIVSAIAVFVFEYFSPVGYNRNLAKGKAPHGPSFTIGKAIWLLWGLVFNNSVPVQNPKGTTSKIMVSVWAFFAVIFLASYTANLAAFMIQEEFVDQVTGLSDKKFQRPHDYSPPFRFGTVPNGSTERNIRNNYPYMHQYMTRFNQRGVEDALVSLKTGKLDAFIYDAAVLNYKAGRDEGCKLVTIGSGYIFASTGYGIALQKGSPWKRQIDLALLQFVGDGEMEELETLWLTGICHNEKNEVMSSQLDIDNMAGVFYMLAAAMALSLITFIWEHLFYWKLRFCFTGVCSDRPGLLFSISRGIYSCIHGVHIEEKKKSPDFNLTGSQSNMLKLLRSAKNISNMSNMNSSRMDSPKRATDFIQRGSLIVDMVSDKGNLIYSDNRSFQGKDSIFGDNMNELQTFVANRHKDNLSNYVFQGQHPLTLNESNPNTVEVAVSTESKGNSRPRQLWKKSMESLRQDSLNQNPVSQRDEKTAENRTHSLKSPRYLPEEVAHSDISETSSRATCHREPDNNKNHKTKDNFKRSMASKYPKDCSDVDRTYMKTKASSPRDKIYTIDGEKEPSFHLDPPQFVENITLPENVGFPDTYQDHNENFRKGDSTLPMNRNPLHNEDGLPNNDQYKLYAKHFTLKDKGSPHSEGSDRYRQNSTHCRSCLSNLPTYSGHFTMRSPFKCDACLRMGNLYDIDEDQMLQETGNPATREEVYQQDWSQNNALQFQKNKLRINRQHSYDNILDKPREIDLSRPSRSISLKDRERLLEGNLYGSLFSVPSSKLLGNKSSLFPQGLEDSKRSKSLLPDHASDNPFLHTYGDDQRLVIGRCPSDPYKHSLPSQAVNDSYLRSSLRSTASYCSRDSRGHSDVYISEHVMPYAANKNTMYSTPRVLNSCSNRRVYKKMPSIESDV", "assay": "Radioligand binding 232810", "settings": "10 µM"}, "[19]": {"target": "Glucocorticoid (Homo sapiens, UniProt P04150)", "sequence (P04150 whole entry)": "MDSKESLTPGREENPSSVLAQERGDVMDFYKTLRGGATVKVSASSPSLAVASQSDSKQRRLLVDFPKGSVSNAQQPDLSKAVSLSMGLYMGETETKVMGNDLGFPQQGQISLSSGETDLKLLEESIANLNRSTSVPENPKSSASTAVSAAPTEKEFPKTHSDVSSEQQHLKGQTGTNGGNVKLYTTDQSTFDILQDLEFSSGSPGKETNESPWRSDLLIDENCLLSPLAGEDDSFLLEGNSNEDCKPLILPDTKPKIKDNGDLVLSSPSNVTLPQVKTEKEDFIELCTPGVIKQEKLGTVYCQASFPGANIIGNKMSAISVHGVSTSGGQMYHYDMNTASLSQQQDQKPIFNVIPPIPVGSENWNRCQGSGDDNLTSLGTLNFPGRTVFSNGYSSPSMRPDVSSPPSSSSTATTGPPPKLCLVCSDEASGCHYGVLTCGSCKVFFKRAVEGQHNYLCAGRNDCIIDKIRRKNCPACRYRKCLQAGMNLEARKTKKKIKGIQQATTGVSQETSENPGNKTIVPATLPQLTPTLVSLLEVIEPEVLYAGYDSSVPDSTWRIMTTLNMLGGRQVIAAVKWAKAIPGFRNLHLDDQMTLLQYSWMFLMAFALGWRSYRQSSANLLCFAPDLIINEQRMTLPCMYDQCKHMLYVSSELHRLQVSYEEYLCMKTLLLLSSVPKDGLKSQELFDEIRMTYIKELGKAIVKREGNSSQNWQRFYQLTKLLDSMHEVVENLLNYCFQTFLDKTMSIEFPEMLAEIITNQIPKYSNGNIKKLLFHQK", "assay": "Radioligand binding 232030", "design": "host or cells: insect cells", "settings": "10 µM"}, "[20]": {"system": "Purinergic P2Y", "assay": "Radioligand binding 268810", "design": "species or system rat", "settings": "10 µM"}, "[21]": {"system": "E. coli strains 536 (K15), CFT073 (K2), DS17 (K5), UTI89 (K1)", "assay": "Visualization of capsule using Alcian blue staining", "format": "cell-based, Escherichia coli", "settings": "200 µM"}, "[22]": {"format": "physicochemical", "method": "SI2-Supporting Information- Goller et al.\nExperimental procedures for aqueous and LB medium solubility, hepatic microsome stability, PAMPA permeability, and plasma stability\nAqueous and LB Medium Solubility: Solubility analysis was performed using a direct UV kinetic solubility method in a 96-well format. All liquid dispense and transfer steps were performed with the Freedom Evo automated liquid handler (Tecan US). Solubility measurements were performed in buffer solution (PBS (pH 7.4) or LB medium), in duplicate. Samples were incubated at room temperature for a minimum of 18 hrs to achieve equilibrium, then filtered (filter plate, pION Inc, P/N 110322) to remove any precipitate formed. The concentration of the compounds was measured by UV absorbance (250-498 nm) using the Infinite M200 (Tecan US) and compared to the spectra of the precipitation-free reference solutions. Spectroscopically pure 1-Propanol (Sigma P/N 256404) was used as a cosolvent to suppress precipitation in the reference solutions.\nThe solubility of each compound was determined using µSOL Evolution Plus software v3.2 (pION Inc) and is expressed as the concentration (µg/mL) of a solute in a saturated solution. […]\nHepatic Microsome Stability: Metabolic stability was assessed in the presence of human liver microsomes (XenoTech, P/N H0630) and mouse liver microsomes (XenoTech, P/N M1000). […]"}, "[23]": {"target": "T11, Neuropeptide Y Y1 (Homo sapiens, UniProt P25929)", "T11 construct": "Human SK-N-MC cells; host or cells: SK-N-MC cells", "assay": "Radioligand binding 257010", "settings": "10 µM"}},
  "note": "Read-outs that look alike come from different tables or passages of the source.",
  "data": [
    {"compound": "CCOc1ccc(-c2cc(NC(=O)c3c(F)cccc3F)c(C(=O)O)s2)cc1", "note": "[DU011]", "values": [
      {"measurement": "% Inh.", "setting": "[1]", "result": -6, "unit": "%"},
      {"measurement": "% Inh.", "setting": "[2]", "result": 2, "unit": "%"},
      {"measurement": "% Inh.", "setting": "[3]", "result": 6, "unit": "%"},
      {"measurement": "% Inh.", "setting": "[4]", "result": 10, "unit": "%"},
      {"measurement": "% Inh.", "setting": "[5]", "result": 9, "unit": "%"},
      {"measurement": "% Inh.", "setting": "[6]", "result": 13, "unit": "%"},
      {"measurement": "% Inh.", "setting": "[7]", "result": 3, "unit": "%"},
      {"measurement": "% Inh.", "setting": "[8]", "result": -6, "unit": "%"},
      {"measurement": "% Inh.", "setting": "[9]", "result": 14, "unit": "%"},
      {"measurement": "% Inh.", "setting": "[10]", "result": 1, "unit": "%"},
      {"measurement": "% Inh.", "setting": "[11]", "result": -4, "unit": "%"},
      {"measurement": "% Inh.", "setting": "[12]", "result": -7, "unit": "%"},
      {"measurement": "% Inh.", "setting": "[13]", "result": 5, "unit": "%"},
      {"measurement": "% Inh.", "setting": "[14]", "result": -6, "unit": "%"},
      {"measurement": "% Inh.", "setting": "[15]", "result": 7, "unit": "%"},
      {"measurement": "% Inh.", "setting": "[16]", "result": 7, "unit": "%"},
      {"measurement": "% Inh.", "setting": "[17]", "result": -16, "unit": "%"},
      {"measurement": "% Inh.", "setting": "[18]", "result": -8, "unit": "%"},
      {"measurement": "% Inh.", "setting": "[19]", "result": 16, "unit": "%"},
      {"measurement": "% Inh.", "setting": "[20]", "result": 1, "unit": "%"},
      {"measurement": "reduction in capsular material from CFT073", "setting": "[21]; CFT073 (K2 serotype)", "result": "slightly less than the other serotypes tested"},
      {"measurement": "capsular material, alcian blue stained gel", "setting": "[21]; strains 536, CFT073, DS17, UTI89", "result": "capsule was reduced in each strain"},
      {"measurement": "Aqueous Solubility", "setting": "[22]; 1× PBS", "result": 92.6, "unit": "µg/mL"},
      {"measurement": "Aqueous Solubility", "setting": "[22]; LB medium", "result": 68, "unit": "µg/mL"},
      {"measurement": "% Inh.", "setting": "[23]", "result": 2, "unit": "%"}
    ]}
  ]
}
